# Assays:
# TYK2 = TYK2 (Homo sapiens, UniProt P29597); experiment: JAK kinase inhibitory activity, HTRF biochemical assay
# JAK2 = JAK2 (Homo sapiens, UniProt O60674); experiment: as above
# JAK3 = molecular target: T1, JAK3 (Homo sapiens, UniProt P52333); experiment: as above
# T1 sequence (P52333 1-1124): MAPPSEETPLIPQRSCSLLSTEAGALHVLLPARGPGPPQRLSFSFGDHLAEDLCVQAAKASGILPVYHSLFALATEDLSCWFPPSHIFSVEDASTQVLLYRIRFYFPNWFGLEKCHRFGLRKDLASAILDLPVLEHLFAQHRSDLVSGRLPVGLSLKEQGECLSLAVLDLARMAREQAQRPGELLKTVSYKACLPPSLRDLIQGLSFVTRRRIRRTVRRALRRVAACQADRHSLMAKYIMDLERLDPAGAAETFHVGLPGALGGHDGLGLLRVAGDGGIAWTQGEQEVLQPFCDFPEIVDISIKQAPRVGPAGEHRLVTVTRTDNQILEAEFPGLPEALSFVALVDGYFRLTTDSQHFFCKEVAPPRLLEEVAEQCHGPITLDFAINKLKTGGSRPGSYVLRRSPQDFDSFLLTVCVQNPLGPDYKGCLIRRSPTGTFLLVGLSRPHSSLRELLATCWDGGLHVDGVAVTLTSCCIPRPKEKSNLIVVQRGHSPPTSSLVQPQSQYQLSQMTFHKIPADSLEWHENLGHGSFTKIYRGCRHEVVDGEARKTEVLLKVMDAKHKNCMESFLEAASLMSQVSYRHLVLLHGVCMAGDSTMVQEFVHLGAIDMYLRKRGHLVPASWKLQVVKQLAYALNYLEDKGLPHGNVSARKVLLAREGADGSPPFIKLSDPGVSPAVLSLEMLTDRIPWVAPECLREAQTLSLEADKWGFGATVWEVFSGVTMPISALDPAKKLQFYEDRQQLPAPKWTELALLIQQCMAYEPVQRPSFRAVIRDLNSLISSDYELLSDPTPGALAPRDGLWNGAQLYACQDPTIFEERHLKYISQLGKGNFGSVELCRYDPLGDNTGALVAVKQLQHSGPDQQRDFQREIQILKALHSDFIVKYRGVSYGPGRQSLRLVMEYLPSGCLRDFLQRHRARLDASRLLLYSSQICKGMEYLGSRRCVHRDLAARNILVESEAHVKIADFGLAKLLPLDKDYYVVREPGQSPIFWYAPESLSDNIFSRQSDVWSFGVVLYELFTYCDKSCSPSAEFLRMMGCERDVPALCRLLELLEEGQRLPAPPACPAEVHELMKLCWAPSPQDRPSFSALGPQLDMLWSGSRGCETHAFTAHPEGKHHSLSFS
# [1] = system: main human CYP molecular species (CYP1A2, 2B6, 2C8, 2C9, 2C19, 2D6 and 3A4); experiment: CYP inhibition test in mixed human liver microsomes; format: in vitro ADME
# Protocol: Commercially available mixed human liver microsomes were used for the typical substrate metabolism reaction of the main human CYP molecular species (CYP1A2, 2B6, 2C8, 2C9, 2C19, 2D6 and 3A4). The reaction conditions were as follows: substrate, CYP1A2: 30 μM of phenacetin; CYP2C9: diclofenac 10 μM; CYP2C19: 35 μM of S-methphenytoin; CYP3A4: midazolam 5 μM, testosterone 80 μM; CYP2D6: bufuralol, 10 μM; CYP2C8: 10 μM of paclitaxel; and CYP2B6: bupropion 70 μM; reaction time, CYP1A2, 2C9, 2D6, 2C8, 2B6: 10 min; CYP2C19: 45 min; and CYP3A4: 5 min. Reaction temperature, 37° C. Inhibitor (positive control), CYP1A2: α-naphthoflavone; CYP2C9: sulfaphenazole; CYP2C19: omeprazole; CYP3A4: ketoconazole; CYP2D6: quinidine; CYP2C8: nicardipine; and CYP2B6: clopidogrel.
# A series of dilutions for the test compound and the positive control were prepared in a 96-well plate, and 8 μL of 10 mM test compound was transferred to 12 μL of ACN. 1:3 serial dilution was performed in a DMSO:ACN mixture (v/v: 40:60). HLM was added to assay wells, and then the test compound or a reference inhibitor solution diluted with serum was added to the designated wells on ice. After the 96-well plate and NADPH solution was pre-incubated at 37° C. for 5 min, 15 μL of the pre-warmed 8 mM NADPH solution was added to the assay plate to start the reaction. […]
# TYK2, sequence (P29597 whole entry, species assumed): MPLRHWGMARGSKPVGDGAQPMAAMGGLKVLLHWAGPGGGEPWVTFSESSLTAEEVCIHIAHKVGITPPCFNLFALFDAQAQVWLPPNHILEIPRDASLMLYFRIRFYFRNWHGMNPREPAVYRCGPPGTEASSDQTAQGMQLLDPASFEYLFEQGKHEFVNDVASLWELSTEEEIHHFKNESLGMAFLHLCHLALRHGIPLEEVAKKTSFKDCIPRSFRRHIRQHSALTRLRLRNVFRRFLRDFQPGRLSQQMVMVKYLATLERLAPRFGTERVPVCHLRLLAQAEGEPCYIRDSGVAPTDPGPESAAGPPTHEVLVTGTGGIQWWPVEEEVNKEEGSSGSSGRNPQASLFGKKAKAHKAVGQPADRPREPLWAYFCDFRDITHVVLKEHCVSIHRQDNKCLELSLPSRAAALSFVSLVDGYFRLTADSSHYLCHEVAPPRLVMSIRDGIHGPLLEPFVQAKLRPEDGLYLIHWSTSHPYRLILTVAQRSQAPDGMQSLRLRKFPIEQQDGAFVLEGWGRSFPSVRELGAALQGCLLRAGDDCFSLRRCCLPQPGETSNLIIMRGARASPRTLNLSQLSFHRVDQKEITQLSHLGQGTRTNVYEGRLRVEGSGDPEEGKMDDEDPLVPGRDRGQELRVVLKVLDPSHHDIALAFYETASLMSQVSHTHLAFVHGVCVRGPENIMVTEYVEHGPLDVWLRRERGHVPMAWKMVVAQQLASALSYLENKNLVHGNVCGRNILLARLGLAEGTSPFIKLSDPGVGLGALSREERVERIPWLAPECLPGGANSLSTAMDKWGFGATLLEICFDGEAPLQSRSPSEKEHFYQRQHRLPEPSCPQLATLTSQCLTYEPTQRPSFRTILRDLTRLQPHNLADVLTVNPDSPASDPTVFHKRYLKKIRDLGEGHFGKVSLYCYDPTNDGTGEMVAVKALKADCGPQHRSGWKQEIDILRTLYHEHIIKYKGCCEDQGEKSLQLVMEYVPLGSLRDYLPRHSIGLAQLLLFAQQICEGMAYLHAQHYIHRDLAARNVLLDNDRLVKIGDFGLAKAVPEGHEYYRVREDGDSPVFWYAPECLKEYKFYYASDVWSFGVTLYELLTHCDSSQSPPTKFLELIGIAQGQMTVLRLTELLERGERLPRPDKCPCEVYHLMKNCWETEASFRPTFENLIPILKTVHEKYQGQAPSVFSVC
# JAK2, sequence (O60674 whole entry, species assumed): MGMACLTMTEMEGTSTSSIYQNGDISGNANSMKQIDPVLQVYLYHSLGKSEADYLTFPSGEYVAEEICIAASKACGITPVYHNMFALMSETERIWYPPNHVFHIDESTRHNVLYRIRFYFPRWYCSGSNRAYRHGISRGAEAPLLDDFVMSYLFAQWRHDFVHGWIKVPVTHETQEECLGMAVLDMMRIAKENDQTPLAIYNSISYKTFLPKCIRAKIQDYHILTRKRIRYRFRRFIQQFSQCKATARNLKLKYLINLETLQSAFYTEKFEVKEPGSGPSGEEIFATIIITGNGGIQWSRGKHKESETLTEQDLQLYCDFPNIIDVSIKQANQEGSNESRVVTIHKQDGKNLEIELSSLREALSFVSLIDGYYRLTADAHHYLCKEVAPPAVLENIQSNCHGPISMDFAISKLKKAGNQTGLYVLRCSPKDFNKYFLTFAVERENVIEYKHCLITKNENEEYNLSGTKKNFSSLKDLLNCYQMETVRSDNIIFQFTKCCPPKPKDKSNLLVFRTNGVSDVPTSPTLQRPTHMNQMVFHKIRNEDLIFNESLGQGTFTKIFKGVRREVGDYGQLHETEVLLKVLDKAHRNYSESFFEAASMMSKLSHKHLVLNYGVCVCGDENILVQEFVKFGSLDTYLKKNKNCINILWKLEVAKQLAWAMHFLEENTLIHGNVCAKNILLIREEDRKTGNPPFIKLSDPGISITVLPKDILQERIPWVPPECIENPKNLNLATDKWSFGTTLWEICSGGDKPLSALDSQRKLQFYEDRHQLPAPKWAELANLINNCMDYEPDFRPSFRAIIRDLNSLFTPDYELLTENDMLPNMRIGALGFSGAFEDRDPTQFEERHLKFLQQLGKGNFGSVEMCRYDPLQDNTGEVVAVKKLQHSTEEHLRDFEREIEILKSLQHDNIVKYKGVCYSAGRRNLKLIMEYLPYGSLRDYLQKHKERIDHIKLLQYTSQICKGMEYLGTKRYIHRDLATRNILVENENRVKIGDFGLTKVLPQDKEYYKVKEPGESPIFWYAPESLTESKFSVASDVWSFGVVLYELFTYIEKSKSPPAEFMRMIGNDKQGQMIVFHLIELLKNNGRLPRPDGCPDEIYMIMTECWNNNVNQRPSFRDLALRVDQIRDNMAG
SMILES,IC50 (TYK2) [nM],IC50 (JAK2) [nM],IC50 (JAK3) [nM],CYP inhibition [1]
"O=C(Nc1cn2c(-c3ccc(CN4CCS(=O)(=O)CC4)s3)cccc2n1)[C@H]1C[C@@H]1F (relative stereo) [EXP-3, trans-N-[5-[5-[(1,1-dioxo-1,4-thiazin-4-yl)methyl]-2-thiophene]imidazo[1,2-a]pyridin-2-yl]-2-fluoro-cyclopropylcarboxamide]",> 500,30 to 50,> 500,no inhibitory effect
O=C(Nc1nc2cccc(-c3ccc(CN4CCS(=O)(=O)CC4)s3)n2n1)C1CC1 [EXP-1],> 500,30 to 50,50 to 500,
